# In US8063018B2, “Bivalent thrombin binding molecules comprising linkers” (National Research Council of Canada, priority 2004, dated 2011):
# Target: thrombin (Homo sapiens, UniProt P00734)
# Experiment: Fibrinogen clotting assay catalyzed by thrombin
# Type: biochemical
# Conditions: 25 nM inhibitor, 5 and 10 μM SAP-SH2, 25° C.
# Protocol: Curves represent OD420 time course after the addition of 0.6 nM thrombin in the presence of (♦) 0 nM; (◯) 0.5 nM; (□) 1 nM; (Δ) 1.5 nM; (⋄) 2.5 nM; (●) 3.75 nM; (▪) 6.25 nM; and (▴) […] of the inhibitor with linker (GS)n and n=2 (SEQ. ID. NO. 50) (a); n=4 (SEQ. ID. NO. 51) (b); n=6 (SEQ. ID. NO. 52) (c); n=8 (SEQ. ID. NO. 53) (d); n=10 (SEQ. ID. NO. 54) (e); and in the presence of (♦) 0 nM; (◯) 1 nM; (□) 2 nM; (Δ) 4 nM; (⋄) 6 nM; (●) 10 nM; (▪) 15 nM; and (▴) 25 nM of the inhibitor with linker (GS)n and n=12 (SEQ. ID. NO. 55) (f); n=14 (SEQ. ID. NO. 56) (g), at 37° C. The onset clotting time was determined as an intersection of the baseline and the extrapolated linear portion of the OD change curve. […] Curves (i) represent OD420 time course in the presence of (A) 0 nM; (◯) 1 nM; (□) 2 nM; (Δ) 4 nM; (⋄) 6 nM; and (●) 15 nM of the inhibitor with linker […] (SEQ. ID. NO. 103), at 37° C. […] represent OD420 time course in the presence of (◯) 0 nM; (□) 2 nM; (Δ) 4 nM; (⋄) 6 nM; (●) 8 nM; (▪) 10 nM; (▴) 12 nM; and (♦) 15 nM; of the inhibitor with linker […] (SEQ. ID. NO. 58) at 25° C. Curves (k) represent OD420 time course in the presence of (◯) 0 nM; (□) 0.5 nM; (Δ) 1 nM; (⋄) 2 nM; (●) 3 nM; (▪) 4 nM; (▴) 5 nM; and (♦) 6 nM; of the inhibitor with linker […] (SEQ. ID. NO. 105) at 37° C. Curves (I) represent OD420 time course in the presence of (◯) 0 nM; (□) 0.25 nM; (Δ) 0.5 nM; (⋄) 1 nM; (●) 1.5 nM; (▪) 2 nM; and (▴) 2.5 nM; of the inhibitor with linker […] (SEQ. ID. NO. 104) at 37° C. Curves (m) represent OD420 time course in the presence of (◯) 0 nM; (□) 2 nM; (Δ) 4 nM; (⋄) 6 nM; (●) 8 nM; (▴) 10 nM; and (A) 12 nM; of the inhibitor with linker […] (SEQ. ID. NO. 106) at 37° C. Curves (n) represent OD420 time course in the presence of (◯) 0 nM; (□) 1 nM; (Δ) 2 nM; (⋄) 3 nM; (●) 4 nM; (▪) 5 nM; (▴) 6 nM; and (♦) 7 nM; of the inhibitor with linker […] (SEQ. ID. NO. 107) at 37° C. Curves (o) represent OD420 time course in the presence of (◯) 0 nM; (□) 4 nM; and (Δ) 8 nM; of the inhibitor with linker GQSHNR (SEQ. ID. NO. 108) at 37° C.
# Other experimental conditions were as used for the assays described in FIG. 2.
# Clotting assays were carried out by use of the protocols described previously (DiMaio and others, 1990, 21698-21703; Witting and others, 1992, 737-743). The assay employs bovine plasma fibrinogen dissolved at 0.1% in 50 mM Tris-Cl, 100 mM NaCl, 0.1% PEG-8000 at pH 7.6 (i.e. the clotting buffer). Each assay mixture contained a certain concentration of the peptide, and the reaction was started by the addition of human thrombin to a final concentration of 0.6-1.2 nM. Optical absorbance increase at 420 nm caused by fibrin clot formation was measured at 25° C. or 37° C. using the Spectramax plate reader. The onset clotting time was determined as an intersection of the baseline and the extrapolated linear portion of the OD change curve. The concentration of a peptide needed to double the clotting time was defined as IC50 (DiMaio and others, 1990, 21698-21703). Kinetic amidolytic curves were obtained in clotting buffer at 25° C. using eight inhibitor concentrations and three to five concentrations of the chromogenic substrate S-2238 (Chromogenix) (DiMaio and others, 1990, 21698-21703). Inhibition constants were extracted from Lineweaver-Burk equation by using weighted linear regression. Errors in Ki determination were estimated by using Monte-Carlo sampling with 1-3% variance of the experimental points.
row,Compound,Effect of SAP-SH2 on thrombin inhibition
1,CC[C@H](C)[C@H](NC(=O)[C@@H](NC(=O)[C@H](CC(C)C)NC(=O)[C@H](CO)NC(=O)[C@H](CCCCN)NC(=O)[C@H](CCCNC(=N)N)NC(=O)CNC(=O)[C@H]1CCCCN1C(=O)[C@H](CCCNC(=N)N)NS(=O)(=O)c1ccc(C(C)(C)C)cc1)[C@@H](C)O)C(=O)N[C@@H](Cc1ccc(O)cc1)C(=O)N[C@@H](C)C(=O)N[C@@H](CCC(N)=O)C(=O)N[C@H](C(=O)N[C@@H](CCC(N)=O)C(=O)N[C@@H](CCCCN)C(=O)NCC(=O)N[C@@H](CC(=O)O)C(=O)N[C@@H](Cc1ccccc1)C(=O)N[C@@H](CCC(=O)O)C(=O)N[C@@H](CCC(=O)O)C(=O)N[C@H](C(=O)N1CCC[C@H]1C(=O)N[C@@H](CCC(=O)O)C(=O)N[C@@H](CCC(=O)O)C(=O)N[C@@H](Cc1ccc(O)cc1)C(=O)N[C@@H](CC(C)C)C(=O)N[C@@H](CCC(N)=O)C(=O)O)[C@@H](C)CC)C(C)C [P3291],reversal of thrombin inhibition

# Same assay, conditions: IC50, nM (25° C.), 25° C.; concentration needed to double the clotting time
row,Compound,IC50 [nM]
1,CC[C@H](C)[C@H](NC(=O)[C@@H](NC(=O)[C@H](CC(C)C)NC(=O)[C@H](CO)NC(=O)[C@H](CCCCN)NC(=O)[C@H](CCCNC(=N)N)NC(=O)CNC(=O)[C@H]1CCCCN1C(=O)[C@H](CCCNC(=N)N)NS(=O)(=O)c1ccc(C(C)(C)C)cc1)[C@@H](C)O)C(=O)N[C@@H](Cc1ccc(O)cc1)C(=O)N[C@@H](C)C(=O)N[C@@H](CCC(N)=O)C(=O)N[C@H](C(=O)N[C@@H](CCC(N)=O)C(=O)N[C@@H](CCCCN)C(=O)NCC(=O)N[C@@H](CC(=O)O)C(=O)N[C@@H](Cc1ccccc1)C(=O)N[C@@H](CCC(=O)O)C(=O)N[C@@H](CCC(=O)O)C(=O)N[C@H](C(=O)N1CCC[C@H]1C(=O)N[C@@H](CCC(=O)O)C(=O)N[C@@H](CCC(=O)O)C(=O)N[C@@H](Cc1ccc(O)cc1)C(=O)N[C@@H](CC(C)C)C(=O)N[C@@H](CCC(N)=O)C(=O)O)[C@@H](C)CC)C(C)C [P3291],7 ± 1

# Same assay, conditions: IC50, nM (37° C.), 37° C.; concentration needed to double the clotting time
row,Compound,IC50 [nM]
1,CC[C@H](C)[C@H](NC(=O)[C@H](CCC(N)=O)NC(=O)[C@@H]1CCCN1C(=O)[C@H](CCCNC(=N)N)NC(=O)[C@@H]1CCCN1C(=O)[C@H](C)NC(=O)[C@H](Cc1c[nH]cn1)NC(=O)[C@H](CO)NC(=O)CNC(=O)[C@H]1CCCCN1C(=O)[C@H](CCCNC(=N)N)NS(=O)(=O)c1ccc(C(C)(C)C)cc1)C(=O)N[C@@H](Cc1c[nH]cn1)C(=O)N[C@@H](CC(N)=O)C(=O)N[C@@H](CC(=O)O)C(=O)NCC(=O)N[C@@H](CC(=O)O)C(=O)N[C@@H](Cc1ccccc1)C(=O)N[C@@H](CCC(=O)O)C(=O)N[C@@H](CCC(=O)O)C(=O)N[C@H](C(=O)N1CCC[C@H]1C(=O)N[C@@H](CCC(=O)O)C(=O)N[C@@H](CCC(=O)O)C(=O)N[C@@H](Cc1ccc(O)cc1)C(=O)N[C@@H](CC(C)C)C(=O)N[C@@H](CCC(N)=O)C(=O)O)[C@@H](C)CC [P3210],0.6
2,CC[C@H](C)[C@H](NC(=O)[C@H](CCC(=O)O)NC(=O)[C@H](CCC(=O)O)NC(=O)[C@H](Cc1ccccc1)NC(=O)[C@H](CC(=O)O)NC(=O)CNC(=O)[C@@H](NC(=O)[C@H](CC(=O)O)NC(=O)CNC(=O)[C@H](C)NC(=O)[C@H](CCC(N)=O)NC(=O)[C@H](CCCCN)NC(=O)[C@H](C)NC(=O)CNC(=O)CNC(=O)[C@H](CC(C)C)NC(=O)[C@H](Cc1c[nH]cn1)NC(=O)[C@H](Cc1c[nH]cn1)NC(=O)CNC(=O)[C@H]1CCCCN1C(=O)[C@H](CCCNC(=N)N)NS(=O)(=O)c1ccc(C(C)(C)C)cc1)C(C)C)C(=O)N1CCC[C@H]1C(=O)N[C@@H](CCC(=O)O)C(=O)N[C@@H](CCC(=O)O)C(=O)N[C@@H](Cc1ccc(O)cc1)C(=O)N[C@@H](CC(C)C)C(=O)N[C@@H](CCC(N)=O)C(=O)O [P3234],3.9 ± 0.8
3,CC[C@H](C)[C@H](NC(=O)[C@H](CCC(=O)O)NC(=O)[C@H](CCC(=O)O)NC(=O)[C@H](Cc1ccccc1)NC(=O)[C@H](CC(=O)O)NC(=O)CNC(=O)[C@H](CCCNC(=N)N)NC(=O)[C@H](CC(=O)O)NC(=O)[C@H](C)NC(=O)[C@H](CCCNC(=N)N)NC(=O)[C@H](CO)NC(=O)[C@H](CCC(=O)O)NC(=O)[C@H](CCSC)NC(=O)[C@H](Cc1ccc(O)cc1)NC(=O)CNC(=O)[C@H]1CCCCN1C(=O)[C@H](CCCNC(=N)N)NS(=O)(=O)c1ccc(C(C)(C)C)cc1)C(=O)N1CCC[C@H]1C(=O)N[C@@H](CCC(=O)O)C(=O)N[C@@H](CCC(=O)O)C(=O)N[C@@H](Cc1ccc(O)cc1)C(=O)N[C@@H](CC(C)C)C(=O)N[C@@H](CCC(N)=O)C(=O)O [P3236],1 ± 0.5
4,CC[C@H](C)[C@H](NC(=O)[C@H](CCC(=O)O)NC(=O)[C@H](CCC(=O)O)NC(=O)[C@H](Cc1ccccc1)NC(=O)[C@H](CC(=O)O)NC(=O)CNC(=O)[C@H](CCCNC(=N)N)NC(=O)[C@H](CC(N)=O)NC(=O)[C@H](Cc1c[nH]cn1)NC(=O)[C@H](CO)NC(=O)[C@H](CCC(N)=O)NC(=O)CNC(=O)[C@H]1CCCCN1C(=O)[C@H](CCCNC(=N)N)NS(=O)(=O)c1ccc(C(C)(C)C)cc1)C(=O)N1CCC[C@H]1C(=O)N[C@@H](CCC(=O)O)C(=O)N[C@@H](CCC(=O)O)C(=O)N[C@@H](Cc1ccc(O)cc1)C(=O)N[C@@H](CC(C)C)C(=O)N[C@@H](CCC(N)=O)C(=O)O [P3238],2 ± 1
5,CC[C@H](C)[C@H](NC(=O)[C@H](CCC(=O)O)NC(=O)[C@H](CCC(=O)O)NC(=O)[C@H](Cc1ccccc1)NC(=O)[C@H](CC(=O)O)NC(=O)CNC(=O)[C@H](CC(=O)O)NC(=O)[C@H](CC(N)=O)NC(=O)[C@H](Cc1c[nH]cn1)NC(=O)[C@H](CO)NC(=O)[C@H](CCC(N)=O)NC(=O)[C@@H]1CCCN1C(=O)[C@H](CCCCN)NC(=O)[C@@H]1CCCN1C(=O)[C@@H](NC(=O)CNC(=O)[C@H](CCC(=O)O)NC(=O)CNC(=O)[C@H](CC(=O)O)NC(=O)[C@@H](NC(=O)[C@H](Cc1ccccc1)NC(=O)[C@H](CCCNC(=N)N)NC(=O)[C@@H](N)C(C)C)[C@@H](C)O)[C@@H](C)O)C(=O)N1CCC[C@H]1C(=O)N[C@@H](CCC(=O)O)C(=O)N[C@@H](CCC(=O)O)C(=O)N[C@@H](Cc1ccc(O)cc1)C(=O)N[C@@H](CC(C)C)C(=O)N[C@@H](CCC(N)=O)C(=O)O [mini-hirudin 1],33 ± 3
6,CC[C@H](C)[C@H](N)C(=O)N[C@@H](CCCNC(=N)N)C(=O)N[C@@H](Cc1ccccc1)C(=O)N[C@H](C(=O)N[C@@H](CC(=O)O)C(=O)NCC(=O)N[C@@H](CCC(=O)O)C(=O)NCC(=O)N[C@H](C(=O)N1CCC[C@H]1C(=O)N[C@@H](CC(N)=O)C(=O)N1CCC[C@H]1C(=O)N[C@@H](CCC(=O)O)C(=O)N[C@@H](CO)C(=O)N[C@@H](Cc1c[nH]cn1)C(=O)N[C@@H](CC(N)=O)C(=O)N[C@@H](CC(N)=O)C(=O)NCC(=O)N[C@@H](CC(=O)O)C(=O)N[C@@H](Cc1ccccc1)C(=O)N[C@@H](CCC(=O)O)C(=O)N[C@@H](CCC(=O)O)C(=O)N[C@H](C(=O)N1CCC[C@H]1C(=O)N[C@@H](CCC(=O)O)C(=O)N[C@@H](CCC(=O)O)C(=O)N[C@@H](Cc1ccc(O)cc1)C(=O)N[C@@H](CC(C)C)C(=O)N[C@@H](CCC(N)=O)C(=O)O)[C@@H](C)CC)[C@@H](C)O)[C@@H](C)O [mini-hirudin 2],14 ± 1
7,CC[C@H](C)[C@H](N)C(=O)N[C@@H](CCCNC(=N)N)C(=O)N[C@@H](Cc1ccccc1)C(=O)N[C@H](C(=O)N[C@@H](CC(=O)O)C(=O)NCC(=O)N[C@@H](C)C(=O)N[C@@H](CCCCN)C(=O)N[C@H](C(=O)N[C@H](C(=O)N[C@@H](CCSC)C(=O)N[C@H](C(=O)N[C@@H](CS)C(=O)N[C@@H](CO)C(=O)N[C@@H](C)C(=O)N[C@@H](CO)C(=O)NCC(=O)N[C@@H](CC(=O)O)C(=O)N[C@@H](Cc1ccccc1)C(=O)N[C@@H](CCC(=O)O)C(=O)N[C@@H](CCC(=O)O)C(=O)N[C@H](C(=O)N1CCC[C@H]1C(=O)N[C@@H](CCC(=O)O)C(=O)N[C@@H](CCC(=O)O)C(=O)N[C@@H](Cc1ccc(O)cc1)C(=O)N[C@@H](CC(C)C)C(=O)N[C@@H](CCC(N)=O)C(=O)O)[C@@H](C)CC)[C@@H](C)O)[C@@H](C)O)C(C)C)[C@@H](C)O [mini-hirudin 3],10 ± 1
